Reference: article PMC7076440, “New Preclinical Development of a c-Met Inhibitor and Its Combined Anti-Tumor Effect in c-Met-Amplified NSCLC” (Pharmaceutics, 2020)
≈ marks a conversion by molar mass, not a printed value.

Columns and labels:
[1] = log D / log P, octanol/water; type: physicochemical
Procedure: ABN401 solution (10 μg/mL) was mixed with octanol at a ratio of 1:1 in a glass vial and placed horizontally in a Digital Bio Rotator (SeoLin Bioscience, Seongnam, Korea), and shaken at a constant 90 rpm for 24 h. After 6 h of equilibrium under room temperature, two phases of water and octanol were separated using a separating funnel. The experiment was repeated five times. The concentration of ABN401 at each phase was analyzed by HPLC and log P and log D were calculated using the Henderson-Hasselbalch equation below with the previously determined pKa value. (4) logDbases =logP+log⎣1/(1+ 10^pKa−pH)⎦

[2] = Equilibrium solubility at different pHs and excipients by HPLC; type: physicochemical; settings: thermodynamic from solid
Procedure: Solutions at pH values of 1 to 12 were prepared using HCl and NaOH. At first, 10^−1 N, 10^−2 N, 10^−3 N, 10^−4 N, 10^−5 N, and 10^−6 N of HCl and NaOH solutions were prepared and their pH values were measured with a pH meter (Metrohm 827 pH lab, Zurich, Switzerland). One milliliter of the 10^−4 N, 10^−5 N, and 10^−6 N of HCl and NaOH solutions was withdrawn and diluted in a 100 mL flask for more coordination. In each prepared solution (n = 3), excess ABN401 was dissolved and mixed for 24 h. All samples were centrifuged for 1 min at 12,000 rpm. The pH solubility of ABN401 was analyzed by HPLC and the pKa was determined by plotting a graph of log(solubility) against pH.
An HPLC system (Shimadzu LC-20, Shimadzu, Kyoto, Japan) was used to analyze the solubility, dissolution profile, and degradation products as well as to determine the storage stability of ABN401. The wavelength of the UV detector was set at 282 nm. For quantification analysis, the Agilent Eclipse Plus C18 (5 μm, 4.6 × 150 mm) (Agilent technologies, Santa Clara, CA, USA) was used and maintained at 30 °C. The mobile phase was a mixture of acetonitrile and 50 mM acetate buffer at pH 5.0 at a volume ratio of 50 to 50 (v/v %). The flow rate of the mobile phase was 0.5 mL/min and the injection volume was 10 μL. A Kromasil C8 (5 μm, 4.6 × 250 mm) column was used for qualification analysis to observe the impurity profile during the storage stability test. The following gradient was applied: 0–20 min, 80% acetonitrile and 20% acetate buffer to 20% acetonitrile and 80% acetate buffer, maintained up to 25 min; 25– 28 min, back to 80% acetonitrile and 20% acetate buffer, maintained up to 35 min. The flow rate of the mobile phase was 1 mL/min and the injection volume was 10 μL.
The solubility of ABN401 in two different acidic buffers (i.e., acetate and citrate) were analyzed at three different pH values: 4.0, 4.5, and 5.0 (Table 2). […] Different concentrations of PEG400, cremophor EL, and polysorbate 80 were also evaluated as co-solvents to ABN401 in 0.1 M acetate buffer at pH 4.0 to investigate the solubility enhancement. […] Therefore, 20% PEG400 in 0.1 M sodium acetate was selected as an oral gavage formulation and intravenous solution for in vivo studies. A short storage stability test was performed for 8 days in a cold chamber to determine the concentration recovery yields at low and high concentrations, which were 0.03 mg/mL and 133 mg/mL, respectively. […] As a result, pH 4.0 yielded the highest percentage recovery in both low and high concentrations (Table 3).

[3] = Dynamic vapor sorption; type: physicochemical; settings: 25 °C, 5% to 95% RH
Procedure: Moisture sorption analyses were utilized using a VTI-SA vapor sorption analyzer (TA Instruments, New Castle, DE, USA). API was placed into the sample holder. The percentage of relative humidity (% RH) in the chamber was increased from 5% to 95% RH for moisture adsorption, followed by a decrease in % RH from 95% to 5% for moisture desorption. A drying phase (i.e., 40 °C, less than 0.01% weight loss in 2 min) was set to run before to the analysis. The temperature was set at a 25 °C throughout the analysis. The program criteria were set to 0.0001% weight change or 2 min stability of weight gained or lost before the program could proceed to the next set parameter.

[4] = Dissolution test, USP Apparatus 2; type: physicochemical; settings: for time to reach 100% release: 50 and 200 mg
Procedure: A dissolution test was carried out according to USP 36 Apparatus 2 (paddle method) at 100 rpm using 900 mL of dissolution medium maintained at 37 ± 0.5 °C (Varian 705 DS; Varian, Cary, NC, USA). Each capsule was enclosed in a stationary sinker (20 × 12 mm) to prevent the capsule from floating on the surface of the dissolution medium or sticking to the inner surface of the dissolution vessels (n = 4). The drug content was analyzed with an HPLC system using samples collected in Eppendorf tubes and centrifuged for 1 min.

[5] = parameters: method as in doi:10.1016/j.dmpk.2016.10.205; settings: rats; cited from earlier work

For `CN1CCN(Cc2ccc(-c3cnc(N4CCOC(Cn5nnc6ncc(-c7cnn(C)c7)nc65)C4)nc3)cc2)CC1` (stereo not drawn) [ABN401], the logD ([1]; average ± SD of five runs) was 1.41 ± 0.08, the logP at 24 h ([1]; average ± SD of five runs) was 2.46 ± 0.04 and the logD ([1]; pH 6.4, run 3, pH 6.40) was 1.37. For the same compound, the logP at 24 h ([1]; run 1, from log D and pKa (Henderson-Hasselbalch)) was 2.41, the logD ([1]; run 1, pH 6.41) was 1.3 and the logP at 24 h ([1]; run 2, from log D and pKa) was 2.43. It also gave a logD ([1]; run 2, pH 6.59) of 1.48, a logP at 24 h ([1]; run 3, from log D and pKa) of 2.5 and a logP at 24 h ([1]; run 4, from log D and pKa) of 2.51. For the same compound, the logD ([1]; run 4, pH 6.49) was 1.47, the logP at 24 h ([1]; run 5, from log D and pKa) was 2.45 and the logD ([1]; run 5, pH 6.53) was 1.45. For the same compound, the solubility at 24 h ([2]; 20% PEG 400 in 0.1 M acetate buffer, aqueous with cosolvent or surfactant or cyclodextrin, PEG 400 (20 %), co-solvent in 0.1 M acetate buffer pH 4.0) was 8010 µg/mL (≈ 14.1 mM), the solubility at 24 h ([2]; 40% PEG 400 in 0.1 M acetate buffer, aqueous with cosolvent or surfactant or cyclodextrin, PEG 400 (40 %), co-solvent in 0.1 M acetate buffer pH 4.0) was 8800 µg/mL (≈ 15.5 mM) and the solubility at 24 h ([2]; 60% PEG 400 in 0.1 M acetate buffer, aqueous with cosolvent or surfactant or cyclodextrin, PEG 400 (60 %), co-solvent in 0.1 M acetate buffer pH 4.0) was 9480 µg/mL (≈ 16.7 mM). For the same compound, the solubility at 24 h ([2]; 80% PEG 400 in 0.1 M acetate buffer, aqueous with cosolvent or surfactant or cyclodextrin, PEG 400 (80 %), co-solvent in 0.1 M acetate buffer pH 4.0) was 12600 µg/mL (≈ 22.1 mM), the solubility at 24 h ([2]; aqueous buffer, 0.1 M acetate buffer (pH 4.0)) was 7140 µg/mL (≈ 12.6 mM) and the solubility at 24 h ([2]; aqueous buffer, 0.1 M acetate buffer (pH 4.5)) was 2290 µg/mL (≈ 4.04 mM). It also gave a solubility at 24 h ([2]; aqueous buffer, 0.1 M acetate buffer (pH 5.0)) of 560 µg/mL (≈ 0.988 mM), a solubility at 24 h ([2]; aqueous buffer, 0.1 M citrate buffer (pH 4.0)) of 60 µg/mL (≈ 0.106 mM) and a solubility at 24 h ([2]; aqueous buffer, 0.1 M citrate buffer (pH 4.5)) of 30 µg/mL (≈ 0.0529 mM). It also gave a solubility at 24 h ([2]; aqueous buffer, 0.1 M citrate buffer (pH 5.0)) of 20 µg/mL (≈ 0.0353 mM), a solubility at 24 h ([2]; aqueous buffer, 1× PBS (pH 7.4)) of 10 µg/mL (≈ 0.0176 mM) and a solubility at 24 h ([2]; hydrochloric acid solution, aqueous buffer, Hydrochloric (pH 2.5)) of 26000 µg/mL (≈ 45.8 mM). The solubility at 24 h ([2]; hydrochloric acid solution, aqueous buffer, Hydrochloric (pH 5.0)) was 3920 µg/mL (≈ 6.92 mM), the solubility at 24 h ([2]; organic solvent or mixture, Cremophor EL (100 %)) was 14100 µg/mL (≈ 24.9 mM) and the solubility at 24 h ([2]; organic solvent or mixture, PEG 400 (100 %)) was 15500 µg/mL (≈ 27.3 mM). For the same compound, the solubility at 24 h ([2]; organic solvent or mixture, Polysorbate 80 (100 %)) was 8460 µg/mL (≈ 14.9 mM), the moisture adsorption [3] was “relatively less adsorptive to moisture” and the “dissolved in less than 45 min” value ([4]; 50 mg physical blend capsules with and without excipients (starch, MCC), pH 1.2 medium) was “above 85%”. For the same compound, the “time to reach 100% release” value ([4]; high shear granulated blend in capsule) was ≤ 60 min, the “time to reach 100% release” value ([4]; optimized granulation blend in capsule, pH 1.2 medium) was ≤ 30 min and the absolute bioavailability [5] was 45%.
